Measurements reported in BindingDB's records for doi:10.1111/j.1747-0285.2010.00957.x (Pfizer, 2010).

Assays:
[1] = target: T1, Phosphopantetheine adenylyltransferase (Escherichia coli (strain K12), UniProt P0A6I6); experiment: High-Throughput Screening Assay (Forward Direction Assay)
Description: (§1) PPAT screening assay (forward-direction assay) were performed in clear 384 well plates containing in each well either 1-uL DMSO, 1 uL of variable concentrations of test compounds solvated in DMSO or 1 uL of a 100-uM solution of a dipeptide inhibitor of PPAT in DMSO which serves as the fully inhibit control.

[2] = target: Phosphopantetheine adenylyltransferase (Enterococcus faecalis (strain ATCC 700802 / V583), UniProt Q831P9); experiment: as above
Description: as §1

[3] = target: T1, Phosphopantetheine adenylyltransferase; experiment: Reverse PPAT Assay
Description: The reverse assay was performed in polyproplene 96-well plates containing in each well either 1 uL DMSO, 1 µL of variable concentrations of test compounds solvated in DMSO or 1 µL of a 100-uM solution of a dipeptide inhibitor of PPAT in DMSO which serves as control.

Chain of Phosphopantetheine adenylyltransferase (Enterococcus faecalis (strain ATCC 700802 / V583), UniProt Q831P9) (Q831P9 whole entry): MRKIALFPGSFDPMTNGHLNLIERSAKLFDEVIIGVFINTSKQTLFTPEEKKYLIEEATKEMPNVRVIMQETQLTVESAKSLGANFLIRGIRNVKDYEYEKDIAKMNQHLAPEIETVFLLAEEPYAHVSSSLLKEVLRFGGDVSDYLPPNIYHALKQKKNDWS
T1 sequence (P0A6I6 whole entry): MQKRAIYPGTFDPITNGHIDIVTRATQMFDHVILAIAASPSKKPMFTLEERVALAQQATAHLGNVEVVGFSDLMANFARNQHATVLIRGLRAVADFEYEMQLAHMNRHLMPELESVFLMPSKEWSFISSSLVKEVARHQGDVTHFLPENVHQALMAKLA

## Cc1c(C(=O)O)[nH]n2c(=O)c3ccc(Cl)cc3nc12 [3-substituted pyrazoloquinolone, 24]
[1]
  IC50: 106 µM
[2]
  IC50: > 167 µM

## Cn1c2ccc(Cl)cc2c(=O)n2nc(C(=O)O)cc12 [4-substituted pyrazoloquinolone, 18]
[1]
  IC50: 160 µM

## Cc1ccc2c(=O)n3[nH]c(C(=O)O)cc3nc2c1 [6-substituted pyrazoloquinolone, 19]
[1]
  IC50: 15 µM
[2]
  IC50: > 167 µM

## O=C(O)c1cc2nc3cc(C(F)(F)F)ccc3c(=O)n2[nH]1 [6-substituted pyrazoloquinolone, 20]
[3]
  IC50: 200 µM
[1]
  IC50: 54 µM
[2]
  IC50: > 167 µM

## Nc1ccc2c(=O)n3[nH]c(C(=O)O)cc3nc2c1 [6-substituted pyrazoloquinolone, 21]
[1]
  IC50: 121 µM
[2]
  IC50: 100 µM

## O=C(O)c1cc2nc3cc(Br)ccc3c(=O)n2[nH]1 [6-substituted pyrazoloquinolone, 22]
[3]
  IC50: > 125 µM
[1]
  IC50: 124 µM
[2]
  IC50: > 167 µM

## O=C(O)c1cc2nc3cc(Cl)ccc3c(=O)n2[nH]1 [6-substituted pyrazoloquinolone, 23]
[3]
  IC50: 93 µM
[1]
  IC50: 49 µM
[2]
  IC50: 212 µM

## O=C(O)c1cc2nc3ccccc3c(=O)n2[nH]1 [7-substituted pyrazoloquinolone, 6]
[3]
  IC50: > 230 µM
[1]
  IC50: 253 µM
[2]
  IC50: > 167 µM

## Cc1ccc2nc3cc(C(=O)O)[nH]n3c(=O)c2c1 [7-substituted pyrazoloquinolone, 7]
[1]
  IC50: 244 µM

## O=C(O)c1cc2nc3ccc(Cl)cc3c(=O)n2[nH]1 [7-substituted pyrazoloquinolone, 8]
[1]
  IC50: 17 µM
[2]
  IC50: > 75 µM

## O=C(O)c1cc2nc3ccc(F)cc3c(=O)n2[nH]1 [7-substituted pyrazoloquinolone, 9]
[1]
  IC50: 103 µM
[2]
  IC50: > 167 µM

## O=C(O)c1cc2nc3ccc(Br)cc3c(=O)n2[nH]1 [7-substituted pyrazoloquinolone, 10]
[3]
  IC50: 22 µM
[1]
  IC50: 6.2 µM
[2]
  IC50: 209 µM

## O=C(O)c1cc2nc3ccc(I)cc3c(=O)n2[nH]1 [7-substituted pyrazoloquinolone, 11]
[3]
  IC50: 11 µM
[1]
  IC50: 5.1 µM
[2]
  IC50: > 137 µM

## CSc1ccc2nc3cc(C(=O)O)[nH]n3c(=O)c2c1 [7-substituted pyrazoloquinolone, 12]
[3]
  IC50: 8.8 µM
[1]
  IC50: 13 µM
[2]
  IC50: > 65 µM

## C[S+]([O-])c1ccc2nc3cc(C(=O)O)[nH]n3c(=O)c2c1 (centres undefined) [7-substituted pyrazoloquinolone, 13]
[1]
  IC50: 166 µM
[2]
  IC50: 20 µM

## CS(=O)(=O)c1ccc2nc3cc(C(=O)O)[nH]n3c(=O)c2c1 [7-substituted pyrazoloquinolone, 14]
[1]
  IC50: 92 µM

## CC(C)Sc1ccc2nc3cc(C(=O)O)[nH]n3c(=O)c2c1 [7-substituted pyrazoloquinolone, 15]
[3]
  IC50: 5 µM
[1]
  IC50: 14 µM
[2]
  IC50: 249 µM

## CN(C)c1ccc2nc3cc(C(=O)O)[nH]n3c(=O)c2c1 [7-substituted pyrazoloquinolone, 16]
[3]
  IC50: 7.1 µM
[1]
  IC50: 49 µM
[2]
  IC50: 157 µM

## COc1ccc2nc3cc(C(=O)O)[nH]n3c(=O)c2c1 [7-substituted pyrazoloquinolone, 17]
[1]
  IC50: > 150 µM
[2]
  IC50: > 167 µM
